Laboratory results taken from patent US20230295162A1 (EÖTVÖS LORÁND TUDOMÁNYEGYETEM, priority 2020, published 2023).
Like-named read-outs stand apart in the source and are kept apart here.

Key:
[1] = system: Detroit 562 cell line; experiment: Additional in vitro IC50 tests (Table 3); type: cell-based; settings: Homo sapiens
Method in brief: (§1)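 Cells at 1000/well, viability by CellTiter-Glo luminescence after compound treatment, as % of untreated control. IC50 from variable-slope log(inhibitor) vs response nonlinear regression.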

[2] = system: EBC-1 cell line; experiment: Additional in vitro IC50 tests (Table 3); type: cell-based; settings: Homo sapiens
Method in brief: as §1

[3] = system: Fadu cell line; experiment: Additional in vitro IC50 tests (Table 3); type: cell-based; settings: Homo sapiens
Method in brief: as §1

[4] = system: H2228 cell line; experiment: Additional in vitro IC50 tests (Table 3); type: cell-based; settings: Homo sapiens, NCI-H2228
Method in brief: as §1

[5] = system: SCC-25 cell line; experiment: Additional in vitro IC50 tests (Table 3); type: cell-based; settings: Homo sapiens
Method in brief: as §1

[6] = system: EBC-1 (lung, squamous cell carcinoma) cells; experiment: Cell viability assay, CellTiter-Glo (Example 21); type: cell-based, human; settings: 72 h treatment
Method in brief: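 The CellTiter-Glo luminescent cell viability assay (Promega) was used to test compound effects on EBC-1 cells. Cells were plated at 1000 cells/well on white flat-bottom 96 well plates, treated, then read for luminescence on a microplate reader. Dose-response curves were fitted by four-parameter variable-slope non-linear regression.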

[7] = system: FaDu (pharynx, squamous cell carcinoma) cells; experiment: Cell viability assay, CellTiter-Glo (Example 21); type: cell-based, human; settings: 72 h treatment
Method in brief: (§2)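 Cells were seeded at optimized densities (Panc-1 750, FaDu 1000, Detroit 562 and MDA-MB-453 1500 cells/well), then treated with compound. Viability was read by CellTiter-Glo luminescence. Dose-response curves were fitted by four-parameter variable-slope non-linear regression.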

[8] = system: LNCaP (prostate, carcinoma) cells; experiment: Cell viability assay, CellTiter-Glo (Example 21); type: cell-based, human; settings: 72 h
Method in brief: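 Flat-bottomed white 96 well plates received 1500 LNCaP cells per well, a density chosen to suit the cells' size and growth rate. Following compound treatment, viability was measured by CellTiter-Glo® luminescence per the manufacturer's protocol, with signal recorded on a BioTek Synergy 2 reader. GraphPad Prism 8.4.2 generated dose-response curves using a four-parameter, variable-slope non-linear regression model.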

[9] = system: PC-3 (prostate, adenocarcinoma) cells; experiment: Cell viability assay, CellTiter-Glo (Example 21); type: cell-based, human; settings: 72 h treatment
Method in brief: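 Cancer cell viability was assessed by luminescence using Promega's CellTiter-Glo® kit. PC-3 cells, plated at a density of 1000 cells/well in white flat-bottom 96 well plates, were exposed to test compounds, after which signals were measured on a microplate reader and dose-response curves fitted by four-parameter variable-slope non-linear regression in GraphPad Prism 8.4.2.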

[10] = system: Panc-1 (pancreas, carcinoma) cells; experiment: Cell viability assay, CellTiter-Glo (Example 21); type: cell-based, human; settings: 72 h treatment
Method in brief: as §2

[11] = system: Detroit 562 (pharynx, carcinoma) cells; experiment: Cell viability assay, CellTiter-Glo (Example 21); type: cell-based, human; settings: 72 h treatment
Method in brief: as §2

[12] = system: MDA-MB-453 (breast, carcinoma) cells; experiment: Cell viability assay, CellTiter-Glo (Example 21); type: cell-based, human; settings: 72 h treatment
Method in brief: as §2

[13] = system: Capan-1 (pancreas, adenocarcinoma) cells; experiment: Cell viability assay, CellTiter-Glo (Example 21); type: cell-based, human; settings: 72 h treatment
Method in brief: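 Viability of Capan-1 pancreatic adenocarcinoma cells was assessed using Promega's CellTiter-Glo® luminescence kit. Cells were plated at 1000 cells/well in white, flat-bottom 96 well plates, treated, then luminescence was recorded on a BioTek Synergy 2 reader. Dose-response curves were fitted in GraphPad Prism 8.4.2 with a four-parameter variable-slope non-linear regression.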

[14] = system: Panc-1 human cell line; experiment: Cytotoxicity on Panc-1, xCELLigence SP, IC50 after 24 h, 48 h, 72 h and 96 h (Example 22)
[15] = system: H2228 lung cancer cell line; experiment: High-throughput screening, CellTiter-Glo cell viability assay at 100 nM; type: cell-based, human; settings: Homo sapiens, NCI-H2228, HTS, compounds at 100 nM, 72 h, read-out: cytotoxicity expressed in IC50, H2228 (results of High throughput screening)
[16] = system: EBC-1 lung cancer cell line; experiment: as above; type: cell-based, human; settings: Homo sapiens, EBC-1, HTS, compounds at 100 nM, 72 h, read-out: cytotoxicity expressed in IC50, EBC-1 (results of High throughput screening)
[17] = system: Panc1 pancreatic cancer cell line; experiment: CellTiter-Glo IC50 (Example 19); type: cell-based; settings: Homo sapiens, PANC-1, 72 h
Method in brief: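 Luminescent ATP-based viability readout (CellTiter-Glo) after compound exposure of cells plated at 1000 per well. IC50 values derive from dose-response curves of viability relative to untreated controls, fitted by non-linear regression with variable slope.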

[18] = PANC-1, 72 h, read-out: IC50 (72 h) [nM]
[19] = PANC-1, 96 h, read-out: IC50 (96 h) [nM]

SMILES: O=C1C2=C(CCN(Cc3cc(F)cc(F)c3)C2)N2CCN=C2N1Cc1ccc(F)cc1 [I/7, 4-(4-Fluorobenzyl)-7-(3,5-difluorobenzyl)-2,4,6,7,8,9-hexahydroimidazo[1,2-a]pyrido[3,4-e]pyrimidin-5(1H)-one]
- IC50 [1]: 3 nM
- IC50 [2]: 9 nM
- IC50 [3]: 10 nM
- IC50 [4]: 10 nM
- IC50 [5]: 13 nM
- EBC-1 (lung, squamous cell carcinoma) cell viability (% of control) ([6]; 3.7 nM): 79.8 ± 4.1 % of control
- EBC-1 (lung, squamous cell carcinoma) cell viability (% of control) ([6]; 11.1 nM): 25.6 ± 0.1 % of control
- EBC-1 (lung, squamous cell carcinoma) cell viability (% of control) ([6]; 100 nM): 23.2 ± 0.9 % of control
- EBC-1 (lung, squamous cell carcinoma) cell viability (% of control) ([6]; 300 nM): 23.8 ± 0.6 % of control
- FaDu (pharynx, squamous cell carcinoma) cell viability (% of control) ([7]; 3.7 nM): 80.1 ± 13.3 % of control
- FaDu (pharynx, squamous cell carcinoma) cell viability (% of control) ([7]; 11.1 nM): 29.1 ± 5.6 % of control
- FaDu (pharynx, squamous cell carcinoma) cell viability (% of control) ([7]; 100 nM): 24.0 ± 3.8 % of control
- FaDu (pharynx, squamous cell carcinoma) cell viability (% of control) ([7]; 300 nM): 26.1 ± 4.5 % of control
- LNCaP cell viability ([8]; 3.7 nM): 45.6 ± 7.0 % of control
- LNCaP cell viability ([8]; 11.1 nM): 17.2 ± 1.9 % of control
- LNCaP cell viability ([8]; 100 nM): 13.1 ± 0.8 % of control
- LNCaP cell viability ([8]; 300 nM): 13.9 ± 1.0 % of control
- PC-3 (prostate, adenocarcinoma) cell viability (% of control) ([9]; 3.7 nM): 82.1 ± 1.6 % of control
- PC-3 (prostate, adenocarcinoma) cell viability (% of control) ([9]; 11.1 nM): 38.9 ± 2.1 % of control
- PC-3 (prostate, adenocarcinoma) cell viability (% of control) ([9]; 100 nM): 34.6 ± 3.0 % of control
- PC-3 (prostate, adenocarcinoma) cell viability (% of control) ([9]; 300 nM): 34.3 ± 3.4 % of control
- Panc-1 (pancreas, carcinoma) cell viability (% of control) ([10]; 3.7 nM): 108.6 ± 7.6 % of control
- Panc-1 (pancreas, carcinoma) cell viability (% of control) ([10]; 11.1 nM): 61.1 ± 3.4 % of control
- Panc-1 (pancreas, carcinoma) cell viability (% of control) ([10]; 100 nM): 60.0 ± 3.6 % of control
- Panc-1 (pancreas, carcinoma) cell viability (% of control) ([10]; 300 nM): 53.5 ± 0.6 % of control
- Detroit 562 (pharynx, carcinoma) cell viability (% of control) ([11]; 3.7 nM): 35.1 ± 5.8 % of control
- Detroit 562 (pharynx, carcinoma) cell viability (% of control) ([11]; 11.1 nM): 28.4 ± 4.2 % of control
- Detroit 562 (pharynx, carcinoma) cell viability (% of control) ([11]; 100 nM): 28.6 ± 13.6 % of control
- Detroit 562 (pharynx, carcinoma) cell viability (% of control) ([11]; 300 nM): 33.0 ± 4.8 % of control
- MDA-MB-453 (breast, carcinoma) cell viability (% of control) ([12]; 3.7 nM): 55.8 ± 6.5 % of control
- MDA-MB-453 (breast, carcinoma) cell viability (% of control) ([12]; 11.1 nM): 35.8 ± 1.3 % of control
- MDA-MB-453 (breast, carcinoma) cell viability (% of control) ([12]; 100 nM): 33.1 ± 1.1 % of control
- MDA-MB-453 (breast, carcinoma) cell viability (% of control) ([12]; 300 nM): 31.6 ± 0.9 % of control
- Capan-1 (pancreas, adenocarcinoma) cell viability (% of control) ([13]; 3.7 nM): 101.9 ± 3.8 % of control
- Capan-1 (pancreas, adenocarcinoma) cell viability (% of control) ([13]; 11.1 nM): 46.0 ± 7.5 % of control
- Capan-1 (pancreas, adenocarcinoma) cell viability (% of control) ([13]; 100 nM): 36.1 ± 2.8 % of control
- Capan-1 (pancreas, adenocarcinoma) cell viability (% of control) ([13]; 300 nM): 35.5 ± 3.3 % of control
- IC50 [14, 18]: 27.3 ± 15.4 nM
- IC50 [14, 19]: 22.1 ± 5.98 nM
- IC50 [15]: < 100 nM
- IC50 [16]: < 100 nM
- IC50 [17]: 11 nM

SMILES: [N-]=[N+]=Nc1ccc(CN2C(=O)C3=C(CCN(Cc4cc(F)cc(F)c4)C3)N3CCN=C23)cc1 [I/107, 4-(4-Azidobenzyl)-7-(3,5-difluorobenzyl)-2,4,6,7,8,9-hexahydroimidazo[1,2-a]pyrido[3,4-e]pyrimidin-5(1H)-one]
- IC50 [1]: 7 nM
- IC50 [2]: 17 nM
- IC50 [3]: 19 nM
- IC50 [4]: 24 nM
- IC50 [5]: 31 nM
- EBC-1 (lung, squamous cell carcinoma) cell viability (% of control) ([6]; 3.7 nM): 99.9 ± 2.5 % of control
- EBC-1 (lung, squamous cell carcinoma) cell viability (% of control) ([6]; 11.1 nM): 70.3 ± 0.9 % of control
- EBC-1 (lung, squamous cell carcinoma) cell viability (% of control) ([6]; 100 nM): 23.5 ± 1.0 % of control
- EBC-1 (lung, squamous cell carcinoma) cell viability (% of control) ([6]; 300 nM): 23.5 ± 2.5 % of control
- FaDu (pharynx, squamous cell carcinoma) cell viability (% of control) ([7]; 3.7 nM): 98.6 ± 1.9 % of control
- FaDu (pharynx, squamous cell carcinoma) cell viability (% of control) ([7]; 11.1 nM): 74.3 ± 4.2 % of control
- FaDu (pharynx, squamous cell carcinoma) cell viability (% of control) ([7]; 100 nM): 24.6 ± 3.6 % of control
- FaDu (pharynx, squamous cell carcinoma) cell viability (% of control) ([7]; 300 nM): 25.5 ± 4.3 % of control
- LNCaP cell viability ([8]; 3.7 nM): 95.3 ± 2.3 % of control
- LNCaP cell viability ([8]; 11.1 nM): 37.9 ± 3.3 % of control
- LNCaP cell viability ([8]; 100 nM): 13.5 ± 0.7 % of control
- LNCaP cell viability ([8]; 300 nM): 13.6 ± 0.6 % of control
- PC-3 (prostate, adenocarcinoma) cell viability (% of control) ([9]; 3.7 nM): 107.1 ± 5.9 % of control
- PC-3 (prostate, adenocarcinoma) cell viability (% of control) ([9]; 11.1 nM): 82.3 ± 7.0 % of control
- PC-3 (prostate, adenocarcinoma) cell viability (% of control) ([9]; 100 nM): 32.7 ± 2.6 % of control
- PC-3 (prostate, adenocarcinoma) cell viability (% of control) ([9]; 300 nM): 32.8 ± 4.1 % of control
- Panc-1 (pancreas, carcinoma) cell viability (% of control) ([10]; 3.7 nM): 107.9 ± 11.5 % of control
- Panc-1 (pancreas, carcinoma) cell viability (% of control) ([10]; 11.1 nM): 93.6 ± 8.1 % of control
- Panc-1 (pancreas, carcinoma) cell viability (% of control) ([10]; 100 nM): 54.2 ± 0.6 % of control
- Panc-1 (pancreas, carcinoma) cell viability (% of control) ([10]; 300 nM): 55.0 ± 3.2 % of control
- Detroit 562 (pharynx, carcinoma) cell viability (% of control) ([11]; 3.7 nM): 86.6 ± 5.7 % of control
- Detroit 562 (pharynx, carcinoma) cell viability (% of control) ([11]; 11.1 nM): 36.8 ± 5.1 % of control
- Detroit 562 (pharynx, carcinoma) cell viability (% of control) ([11]; 100 nM): 31.4 ± 2.9 % of control
- Detroit 562 (pharynx, carcinoma) cell viability (% of control) ([11]; 300 nM): 34.1 ± 6.5 % of control
- MDA-MB-453 (breast, carcinoma) cell viability (% of control) ([12]; 3.7 nM): 107.2 ± 9.1 % of control
- MDA-MB-453 (breast, carcinoma) cell viability (% of control) ([12]; 11.1 nM): 47.8 ± 6.2 % of control
- MDA-MB-453 (breast, carcinoma) cell viability (% of control) ([12]; 100 nM): 32.3 ± 1.3 % of control
- MDA-MB-453 (breast, carcinoma) cell viability (% of control) ([12]; 300 nM): 32.2 ± 1.3 % of control
- Capan-1 (pancreas, adenocarcinoma) cell viability (% of control) ([13]; 3.7 nM): 103.5 ± 3.0 % of control
- Capan-1 (pancreas, adenocarcinoma) cell viability (% of control) ([13]; 11.1 nM): 101.2 ± 5.2 % of control
- Capan-1 (pancreas, adenocarcinoma) cell viability (% of control) ([13]; 100 nM): 37.6 ± 2.3 % of control
- Capan-1 (pancreas, adenocarcinoma) cell viability (% of control) ([13]; 300 nM): 34.7 ± 2.9 % of control
- IC50 [14, 18]: 102 ± 24.4 nM
- IC50 [14, 19]: 49.6 ± 17 nM
- IC50 [15]: < 100 nM
- IC50 [16]: < 100 nM
- IC50 [17]: 14 nM
